Assay results reported in patent publication US11058654B2, “Compositions and methods for the treatment of hemoglobinopathies and thalassemias” (AXCELLA HEALTH INC., priority 2018, dated 2021).

Assays:
Format in all cases: cell-based, human
ICAM-1 = ICAM-1 cell integrated intensity in HLMVEC treated with TNFa; conditions: 0.5 ng/mL TNFα; amino acids at 20×; 24 hours; in words
From the text: (§1) A VEC model was employed to assess the ability of amino acids to influence aspects of vascular dysfunction in SCD. TNFa treatment of healthy donor HLMVEC mimics the SCD disease state and induces expression of adhesion markers ICAM-1 and VCAM-1, and secretion of proinflammatory cytokine IL-6. It is established that levels of ICAM-1, VCAM-1, and IL-6 can contribute to SCD pathology and correlate with the incidence and severity of complications in SCD patients. The VEC model sought to test the ability of amino acids to reduce the TNFa-induced disease phenotype by lowering expression of adhesion markers (ICAM-1 and VCAM-1) and inflammatory cytokines (IL-6) while promoting VEC health and viability.
Primary Human Lung Microvascular Endothelial Cells (HLMVEC; Lonza) were seeded at 6,000 cells per well in Endothelial Cell Growth Basal Medium-2 (Lonza) supplemented with Fetal Bovine Serum (FBS; Lonza), human EGF (Lonza), human VEGF (Lonza), R3-Insulin-like Growth Factor-1 (Lonza), ascorbic acid (Lonza), hydrocortisone (Lonza), human FGF-beta (Lonza), and gentamicin/amphotericin-b (Lonza) in a 96-well plate (Thermo Fisher). […]
(§2) Antibody binding was detected by fluorescence microscopy using a high content imager (Molecular Devices). Images were analyzed using MetaXpress 6 software to determine the integrated intensity per cell for each wavelength corresponding to ICAM-1 or VCAM-1.

VCAM-1 = VCAM-1 cell integrated intensity in HLMVEC treated with TNFa; conditions: 0.5 ng/mL TNFα; amino acids at 20×; 24 hours; in words
From the text: as §1
Primary Human Lung Microvascular Endothelial Cells (HLMVEC; Lonza) were seeded at 6,000 cells per well in Endothelial Cell Growth Basal Medium-2 (Lonza) supplemented with Fetal Bovine Serum (FBS; Lonza), human EGF (Lonza), human VEGF (Lonza), R3-Insulin-like Growth Factor-1 (Lonza), ascorbic acid (Lonza), hydrocortisone (Lonza), human FGF-beta (Lonza), and gentamicin/amphotericin-b (Lonza) in a 96-well plate (Thermo Fisher). The cells were incubated for 45 minutes at room temperature, then incubated overnight at 37° C./5% CO2.
Following overnight incubation, cell were washed once with 150 μL of Dulbecco's phosphate buffered saline (DPBS; Gibco), and then treated with Endothelial Basal Medium MCB-131 (amino acid, glucose, sodium pyruvate, and phenol red free; US Biologicals) containing a defined custom amino acid concentration based on physiological concentrations in blood of patients with SCD (thus recapitulating observed metabolic imbalances such as the depletion of certain essential amino acids including arginine and aspartate and enrichment of certain non-essential amino acids including glutamate and asparagine), dialyzed FBS (Hyclone), human EGF (Lonza), human VEGF (Lonza), R3-Insulin-like Growth Factor-1 (Lonza), ascorbic acid (Lonza), hydrocortisone (Lonza), human FGF-beta (Lonza), and gentamicin/amphotericin-b (Lonza), glucose, 10 mM HEPES, sodium pyruvate, and sodium bicarbonate supplemented with one of the following: • a. PBS (vehicle control), • b. 0.5 ng/mL Tumor Necrosis Factor alpha (TNFα) and PBS, or; • c. 0.5 ng/mL TNFα and amino acid treatments at 20× mean physiological concentrations in plasma based on values published in the Human Metabolome Database (HMDB) in PBS.
After 24 hours of treatment, cells were washed once with 150 μL of DPBS (Gibco), then fixed with 4% paraformaldehyde. […]
as §2

[1] = test system: whole blood of healthy control donors; assay: Reactive oxygen species (DCF fluorescence, H2O2) in whole blood of healthy controls
Method: (§3) Whole blood samples were appropriately diluted in Ca^2+- and Mg^2+-free Dulbecco's phosphate buffered saline (DPBS, Life Technologies) and the concentration of erythrocytes (RBC/ml) was measured on a Cellometer K2 Fluorescent Viability Cell Counter according to the manufacturer's RBC/AOPI protocol (Nexcelom Biosciences).
(§4) Cells were then diluted to 1*10^6 RBC/ml into either prewarmed 37° C. […] 2′-7′-dichlorofluorescin diacetate (DCF, Millipore Sigma), 20 mM in dimethyl sulfoxide (DMSO, Fisher) were added to a working concentration of 100 μM. Cells were incubated with dye for 15 minutes at 37° C., 5% CO2 in a tissue culture incubator, washed once, and resuspended in the 0.9 volumes of the same prewarmed 37° C. buffer with 5 minute spins at 500× g, accel/decal=5 in a swing arm centrifuge (Beckman Coulter). […] Where possible due to solubility constrains, pH-7.4-adjusted stock solutions of amino acids were used. Wells were mixed by pipetting and plates incubated at 37° C., 5% CO2 in a tissue culture incubator for 30 minutes. Optionally, 40 mM H2O2(Millipore Sigma) freshly prepared in the same buffer was added to bring the concentration to 2 mM, wells mixed by pipetting, and plates were incubated an additional 30, 60, 120, or 240 minutes before fluorescence measurement of ROS signal on a Synergy H4 (BioTek) microplate reader with excitation=488 nm and emission=530 nm, and gain either set to autogain, 75, or 100.

[2] = test system: sickle cell disease patient blood; assay: Reactive oxygen species (DCF fluorescence, H2O2) in sickle cell disease patient blood
Method: as §3, §4

`NCC(=O)O` [Gly, glycine] was tested, and the “TNF-α induced ICAM-1 expression levels in HLMVEC” value (ICAM-1) was “reduced levels of ICAM-1 expression to a lesser extent” and the “VCAM-1 expression in HLMVEC” value (VCAM-1) was “greatly reduced”.

`N[C@@H](CS)C(=O)O` [cysteine] was tested, and the “ROS measured in whole blood” value ([1]; healthy control donors, treated with H2O2, dose-responsive) was “reduced ROS” and the “ROS measured in whole blood” value ([2]; treated with H2O2 and untreated in DPBS) was “reduced ROS”.

In the case of `N[C@@H](Cc1c[nH]c2ccccc12)C(=O)O` [tryptophan], the ROS signal ([1]; healthy donor blood, 10×) is reported as “increased ROS signal” and the ROS signal ([2]; 10×) is reported as “increased ROS signal”.
